The test system of one experiment is BT-474. The experiment is described as follows: Cytotoxicity against human HER2-dependent BT474 cells. It counts as functional, cell-based.
For a further experiment, the target named is T1, Aurora kinase A (Homo sapiens, UniProt O14965).
T1 sequence (O14965 whole entry): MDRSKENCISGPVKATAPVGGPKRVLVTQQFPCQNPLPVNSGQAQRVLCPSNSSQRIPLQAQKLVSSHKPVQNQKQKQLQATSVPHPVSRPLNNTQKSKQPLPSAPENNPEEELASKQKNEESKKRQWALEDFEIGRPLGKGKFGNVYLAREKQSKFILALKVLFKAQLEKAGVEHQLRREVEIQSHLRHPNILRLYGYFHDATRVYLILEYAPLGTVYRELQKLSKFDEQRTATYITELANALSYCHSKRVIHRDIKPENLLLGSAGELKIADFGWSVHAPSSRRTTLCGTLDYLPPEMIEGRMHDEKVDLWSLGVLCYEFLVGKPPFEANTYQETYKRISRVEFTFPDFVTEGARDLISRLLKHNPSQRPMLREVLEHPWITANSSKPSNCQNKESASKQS
The experiment is described as follows: Inhibition of Aurora A.

For the next experiment, the system named is HeLa. The experiment is described as follows: Cytotoxicity against human non-HER2-dependent HeLa cells. It counts as functional, cell-based.
For experiment [1], the target named is T2, Cyclin-dependent kinase 1 (Homo sapiens, UniProt P06493). Description: Inhibition of CDK1.
Target sequence in this assay (P06493 whole entry): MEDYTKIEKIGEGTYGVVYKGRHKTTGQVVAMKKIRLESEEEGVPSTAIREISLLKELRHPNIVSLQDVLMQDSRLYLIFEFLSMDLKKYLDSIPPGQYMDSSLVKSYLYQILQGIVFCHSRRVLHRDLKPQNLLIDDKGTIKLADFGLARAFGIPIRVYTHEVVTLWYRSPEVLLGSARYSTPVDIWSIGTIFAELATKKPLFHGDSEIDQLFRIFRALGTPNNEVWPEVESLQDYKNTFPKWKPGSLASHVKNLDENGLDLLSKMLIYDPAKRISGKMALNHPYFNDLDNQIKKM
A further experiment has as its system SK-BR-3. The experiment is described as follows: Cytotoxicity against human HER2-dependent SKBR3 cells. It counts as functional, cell-based.
The next experiment relates to NCI-N87. The experiment is described as follows: Cytotoxicity against human HER2-dependent N87 cells. It counts as functional, cell-based.
Experiment [2] concerns the target Receptor tyrosine-protein kinase erbB-2 (Homo sapiens, UniProt P04626). The experiment is described as follows: Inhibition of HER2.
Experiment [3] concerns the target Epidermal growth factor receptor (Homo sapiens, UniProt P00533).
Experiment [4] has as its target T3, Vascular endothelial growth factor receptor 2 (Homo sapiens, UniProt P35968). The experiment is described as follows: Inhibition of VEGFR2.
Experiment [5] deals with T2, Cyclin-dependent kinase 1. The experiment is described as follows: Inhibition of CDK1 at 100 uM.
Target sequence in this assay (P06493 whole entry, looked up): as the sequence (P06493 whole entry) above
Experiment [6] has as its target T4, Aurora kinase A (Homo sapiens) (UniProt O14965).
T4 sequence (whole entry): T1 sequence (O14965 whole entry)
Description: Inhibition of Aurora A at 100 uM.

The target in experiment [7] is T3, Vascular endothelial growth factor receptor 2. Description: Inhibition of VEGFR2 at 100 uM.

Chain of Epidermal growth factor receptor (P00533 whole entry): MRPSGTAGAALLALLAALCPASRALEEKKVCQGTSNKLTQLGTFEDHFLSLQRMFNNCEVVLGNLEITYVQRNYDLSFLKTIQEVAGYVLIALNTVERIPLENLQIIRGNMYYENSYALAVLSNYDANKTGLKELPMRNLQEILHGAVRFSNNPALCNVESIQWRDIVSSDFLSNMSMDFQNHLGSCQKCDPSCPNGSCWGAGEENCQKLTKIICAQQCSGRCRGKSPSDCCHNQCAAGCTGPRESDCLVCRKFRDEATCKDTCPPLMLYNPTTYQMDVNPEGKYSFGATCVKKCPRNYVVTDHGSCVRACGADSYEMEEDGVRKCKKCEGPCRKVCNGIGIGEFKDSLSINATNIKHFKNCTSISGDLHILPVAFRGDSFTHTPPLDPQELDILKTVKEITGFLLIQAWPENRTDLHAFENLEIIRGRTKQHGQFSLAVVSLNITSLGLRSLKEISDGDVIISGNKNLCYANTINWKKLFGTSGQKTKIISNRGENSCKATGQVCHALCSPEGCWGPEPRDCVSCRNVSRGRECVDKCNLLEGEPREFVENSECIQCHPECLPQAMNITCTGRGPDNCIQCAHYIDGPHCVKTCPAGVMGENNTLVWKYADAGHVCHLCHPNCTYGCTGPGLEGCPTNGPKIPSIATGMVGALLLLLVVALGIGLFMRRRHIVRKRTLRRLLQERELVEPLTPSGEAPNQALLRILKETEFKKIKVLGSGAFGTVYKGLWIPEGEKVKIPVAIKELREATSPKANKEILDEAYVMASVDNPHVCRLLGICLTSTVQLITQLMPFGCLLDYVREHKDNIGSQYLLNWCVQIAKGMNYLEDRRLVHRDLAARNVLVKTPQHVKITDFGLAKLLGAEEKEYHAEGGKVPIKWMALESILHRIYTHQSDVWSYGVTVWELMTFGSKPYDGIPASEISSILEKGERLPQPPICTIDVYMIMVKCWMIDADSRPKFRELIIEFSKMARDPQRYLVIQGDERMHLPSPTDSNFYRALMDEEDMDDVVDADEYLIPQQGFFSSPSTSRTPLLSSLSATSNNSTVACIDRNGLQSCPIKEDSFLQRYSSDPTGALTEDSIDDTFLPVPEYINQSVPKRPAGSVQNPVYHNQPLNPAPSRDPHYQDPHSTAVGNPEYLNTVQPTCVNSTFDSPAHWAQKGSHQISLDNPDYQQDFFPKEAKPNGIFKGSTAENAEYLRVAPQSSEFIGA
T3 sequence (P35968 whole entry): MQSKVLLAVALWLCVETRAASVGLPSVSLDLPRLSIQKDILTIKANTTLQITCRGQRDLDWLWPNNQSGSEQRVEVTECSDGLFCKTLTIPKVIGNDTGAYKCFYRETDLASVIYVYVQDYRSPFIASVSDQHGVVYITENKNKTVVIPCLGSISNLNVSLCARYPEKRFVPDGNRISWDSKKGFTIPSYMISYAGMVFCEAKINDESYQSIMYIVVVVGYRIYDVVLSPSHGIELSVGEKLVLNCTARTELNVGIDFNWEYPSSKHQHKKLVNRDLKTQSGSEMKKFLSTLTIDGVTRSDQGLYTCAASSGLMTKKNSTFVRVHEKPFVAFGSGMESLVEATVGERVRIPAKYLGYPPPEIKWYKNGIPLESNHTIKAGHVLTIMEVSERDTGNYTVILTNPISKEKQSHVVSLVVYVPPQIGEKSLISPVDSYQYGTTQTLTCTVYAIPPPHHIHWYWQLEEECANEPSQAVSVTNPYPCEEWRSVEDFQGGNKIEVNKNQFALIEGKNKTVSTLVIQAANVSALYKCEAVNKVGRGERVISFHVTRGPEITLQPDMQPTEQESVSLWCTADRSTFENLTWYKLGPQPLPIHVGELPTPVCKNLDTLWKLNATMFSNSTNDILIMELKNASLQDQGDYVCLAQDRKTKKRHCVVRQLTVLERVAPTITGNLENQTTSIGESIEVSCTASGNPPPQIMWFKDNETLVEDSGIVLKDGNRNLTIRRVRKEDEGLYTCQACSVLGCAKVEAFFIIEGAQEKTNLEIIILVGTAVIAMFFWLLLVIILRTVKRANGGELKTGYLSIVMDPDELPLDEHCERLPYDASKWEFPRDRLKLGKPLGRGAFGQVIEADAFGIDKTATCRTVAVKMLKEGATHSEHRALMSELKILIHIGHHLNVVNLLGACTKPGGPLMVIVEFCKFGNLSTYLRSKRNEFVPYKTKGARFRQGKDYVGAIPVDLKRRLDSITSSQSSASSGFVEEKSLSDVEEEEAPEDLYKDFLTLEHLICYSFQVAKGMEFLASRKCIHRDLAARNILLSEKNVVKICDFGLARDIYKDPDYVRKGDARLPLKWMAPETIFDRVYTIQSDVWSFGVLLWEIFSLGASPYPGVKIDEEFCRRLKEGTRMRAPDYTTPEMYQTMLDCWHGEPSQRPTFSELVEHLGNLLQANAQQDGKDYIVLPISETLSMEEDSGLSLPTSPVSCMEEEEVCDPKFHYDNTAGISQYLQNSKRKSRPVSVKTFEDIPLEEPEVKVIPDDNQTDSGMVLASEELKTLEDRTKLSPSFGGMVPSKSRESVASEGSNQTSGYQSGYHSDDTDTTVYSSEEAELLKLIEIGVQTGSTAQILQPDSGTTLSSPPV
Chain of Receptor tyrosine-protein kinase erbB-2 (P04626 whole entry): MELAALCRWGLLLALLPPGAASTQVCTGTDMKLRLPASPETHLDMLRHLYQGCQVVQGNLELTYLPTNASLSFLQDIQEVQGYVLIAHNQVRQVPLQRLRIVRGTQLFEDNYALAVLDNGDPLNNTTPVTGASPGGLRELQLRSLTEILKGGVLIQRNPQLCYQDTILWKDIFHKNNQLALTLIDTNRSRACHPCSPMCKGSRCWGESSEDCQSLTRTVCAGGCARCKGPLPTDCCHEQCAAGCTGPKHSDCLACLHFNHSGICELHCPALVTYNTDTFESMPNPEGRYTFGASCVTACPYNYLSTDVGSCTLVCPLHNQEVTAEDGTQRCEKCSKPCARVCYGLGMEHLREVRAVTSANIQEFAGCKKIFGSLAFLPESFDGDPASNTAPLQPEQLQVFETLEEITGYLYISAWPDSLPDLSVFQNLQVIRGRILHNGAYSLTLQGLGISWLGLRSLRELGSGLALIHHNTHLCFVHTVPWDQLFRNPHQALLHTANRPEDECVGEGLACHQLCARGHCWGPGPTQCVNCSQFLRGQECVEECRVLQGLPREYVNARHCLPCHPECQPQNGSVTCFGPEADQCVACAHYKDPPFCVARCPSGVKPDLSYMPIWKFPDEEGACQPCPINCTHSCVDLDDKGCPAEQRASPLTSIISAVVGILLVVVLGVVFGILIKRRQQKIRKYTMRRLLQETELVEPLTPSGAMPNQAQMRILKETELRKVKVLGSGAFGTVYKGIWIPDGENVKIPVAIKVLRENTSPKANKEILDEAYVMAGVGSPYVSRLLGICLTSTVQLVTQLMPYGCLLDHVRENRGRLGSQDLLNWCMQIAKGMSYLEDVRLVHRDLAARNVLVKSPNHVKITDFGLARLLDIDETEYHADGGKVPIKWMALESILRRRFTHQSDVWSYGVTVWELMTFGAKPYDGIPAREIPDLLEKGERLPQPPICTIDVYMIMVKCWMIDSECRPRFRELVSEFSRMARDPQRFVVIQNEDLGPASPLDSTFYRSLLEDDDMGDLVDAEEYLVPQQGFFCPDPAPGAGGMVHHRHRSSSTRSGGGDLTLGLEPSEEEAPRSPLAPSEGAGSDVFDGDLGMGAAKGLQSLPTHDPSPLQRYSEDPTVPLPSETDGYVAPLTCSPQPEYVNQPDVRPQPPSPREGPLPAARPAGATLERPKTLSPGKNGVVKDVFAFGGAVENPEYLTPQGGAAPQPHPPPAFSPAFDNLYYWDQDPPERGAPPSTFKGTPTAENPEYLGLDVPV

For `Nc1ncnc(Nc2ccc(OCc3ccccc3)c(Cl)c2)c1-c1nnc(CCN2CCOCC2)o1`, the IC50 was 0.312 µM in the experiment on BT-474; more than 100 µM on Aurora kinase A; more than 100 µM with HeLa; more than 100 µM in experiment [1]; 0.325 µM in the experiment with SK-BR-3; 0.411 µM in the experiment with NCI-N87. Also, the values for the IC50 in experiment [2], in experiment [3] and in experiment [4] were 0.08 µM, 0.03 µM and more than 100 µM, respectively.
Turning to `Nc1ncnc(Nc2ccc(OCc3ccccc3)c(Cl)c2)c1C=O`, the inhibition was less than 10% in [5], 30% in experiment [6] and less than 10% in experiment [7].
`COc1ccc(CCNC(=O)c2c(N)ncnc2Nc2ccc(OCc3ccccc3)c(Cl)c2)cc1`: the IC50 (on Aurora kinase A; in experiment [1]; in experiment [2]; in [4]) was more than 100 µM each time.
Take `COCCNC(=O)c1c(N)ncnc1Nc1ccc(OCc2ccccc2)c(Cl)c1`: the half-inhibitory concentration (IC50) (against Aurora kinase A; in [1]; in experiment [2]; in experiment [4]) was more than 100 µM throughout.
Regarding `Nc1ncnc(Nc2ccc(OCc3ccccc3)c(Cl)c2)c1C(=O)NNC(=O)CCN1CCOCC1`, the IC50 (at Aurora kinase A; in experiment [1]; in experiment [4]) was more than 100 µM in each case.
As to `Nc1ncnc(Nc2ccc(OCc3ccccc3)c(Cl)c2)c1C(=O)Nc1ccccc1`, the IC50 at Aurora kinase A is more than 100 µM; in [1], more than 100 µM; in experiment [2], more than 100 µM; in experiment [3] it was 0.076 µM; in experiment [4], more than 100 µM.
For `NNC(=O)c1c(N)ncnc1Nc1ccc(OCc2ccccc2)c(Cl)c1`, the IC50 is more than 10 µM at Aurora kinase A, more than 100 µM in experiment [1], 0.146 µM in experiment [2] and more than 10 µM in [4].
With `COc1ccc(NC(=O)c2c(N)ncnc2Nc2ccc(OCc3ccccc3)c(Cl)c2)cc1`, the 50% inhibitory concentration (IC50) on Aurora kinase A was more than 10 µM; in experiment [1], more than 100 µM; in experiment [2] it was more than 100 µM; in experiment [4], more than 100 µM.
Regarding `CCN(CC)C(=O)c1c(N)ncnc1Nc1ccc(OCc2ccccc2)c(Cl)c1`, the IC50 (on Aurora kinase A; in [1]; in [2]; in [4]) was more than 100 µM each time.
For the compound `Nc1ncnc(Nc2ccc(OCc3ccccc3)c(Cl)c2)c1C(=O)NCCN1CCCCC1`, the IC50 is 100 µM on Aurora kinase A, more than 100 µM in [1] and more than 100 µM in experiment [4].
In [6], `COC(=O)c1c(N)ncnc1Nc1ccc(OCc2ccccc2)c(Cl)c1` yielded an inhibition of 50%. The midpoint of inhibition in [2], the IC50, lay at 0.1 µM.
`Nc1ncnc(Nc2ccc(OCc3ccccc3)c(Cl)c2)c1C(=O)O`: the inhibition is less than 10% in experiment [5], 73% in experiment [6] and 30% in experiment [7].
Regarding `Nc1ncnc(Nc2ccc(OCc3ccccc3)c(Cl)c2)c1C(=O)OCCN1CCOCC1`, the inhibition in experiment [5] was less than 10%; in [6], 55%; in [7] it was 11%. Also, half-maximal inhibition in [2] (IC50) required 1.53 µM.
In the case of `Nc1ncnc(Nc2ccc(OCc3ccccc3)c(Cl)c2)c1C(=O)NCCN1CCOCC1`, the IC50 against Aurora kinase A is more than 100 µM; in [1], more than 100 µM; in experiment [2], 10 µM; in experiment [4], more than 100 µM.
For the compound `Nc1ncnc(Nc2ccc(OCc3ccccc3)c(Cl)c2)c1C(=O)OCc1cccc(F)c1`, the IC50 (on Aurora kinase A; in experiment [1]; in [2]; in experiment [4]) was more than 100 µM in each case.
Turning to `N#Cc1c(N)ncnc1Nc1ccc(OCc2ccccc2)c(Cl)c1`, the inhibition in experiment [5] is less than 10%; in experiment [6] it was 33%; in experiment [7] it was 37%. Further, the IC50 in [2] was found to be 0.47 µM; in experiment [3] it was 0.027 µM.

As a reminder, the IC50 is the concentration that gives 50% inhibition. A lower IC50 goes with greater potency. As usually defined, the inhibition is the share of the control response that was lost under treatment.

Values taken from ChEMBL document CHEMBL1156722, “A novel 5-[1,3,4-oxadiazol-2-yl]-N-aryl-4,6-pyrimidine diamine having dual EGFR/HER2 kinase activity: design, synthesis, and biological activity” (Bioorg Med Chem Lett, 2008).
